Measurements published in publication PMC10447463, “Data-mining unveils structure–property–activity correlation of viral infectivity enhancing self-assembling peptides” (Nature Communications, 2023).
Read-outs that look alike come from different tables or passages of the source.

Experiments:
[1] = format: physicochemical; set-up: key to Fibril / Fibril Formation / TEM 2cat / Fibril: 1 = fibrils present; 0 non-fibrillar structures; conditions: for Fibril / Fibril / Fibril Formation: TEM; for Fibril / Fibril Formation: 1 mg/mL, uranyl acetate stain, qualitative
[2] = format: physicochemical; conditions: for ThT Cat. / ThT-Fluorescence (categorical): ThT-active if fluorescence at least twice the control
Outline: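 Fibrils (1 mg/mL solution) were mixed with 50 µM ThT in PBS for 15 min at RT, and fluorescence was read at λex 440/λem 488 nm against a PBS blank, as a triplicate mean ± SD. Zeta potential came from electrophoretic mobility (Smoluchowski) after 1 d aggregation at 1 mg/mL in PBS pH 7.4, diluted into 1 mM KCl.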

[3] = FigS12 panel A, fibril category by TEM
[4] = 1 = fibrils present, 0 = non-fibrillar
[5] = 1 = fibrils present, 0 = non-fibrillar structures
[6] = ThT fluorescence category, 1 if Rel. ThT >2
[7] = category: fibrils present or non-fibrillar

Row | Substance | TEM 2cat ([1]; Fig S10 panel D) | TEM 2cat [1, 3] | Fibril ([1]; FigS12 panel B) | Fibril / Fibril Formation [1] | Fibril [1, 4] | Fibril [1, 5] | Tht category (> 2 to blank = +) ([2]; Fig S10 panel D) | Tht category (> 2 to blank = +) ([2]; FigS12 panel A) | ThT Cat, ([2]; FigS12 panel B) | ThT Cat, ([2]; ThT category, 1 if Rel. ThT >2) | ThT Cat. [2, 6] | ThT Cat. / ThT-Fluorescence (categorical) [2] | ThT Cat. ([2]; ThT category, 1 if Rel. ThT >2) | TEM 2cat [1, 7]
1 | KWKWQW | 0 | 0 | 0 | 0 | 0 | 0 | 0 (ThT-inactive (N-Fold <2)) | 0 (ThT-inactive (N-Fold <2)) | 0 (ThT-inactive (N-Fold <2)) | 0 (ThT-inactive (N-Fold <2)) | 0 (ThT-inactive (N-Fold <2)) | 0 (ThT-inactive (N-Fold <2)) | – | –
2 | TKTLTKTL | 0 | 0 | 0 | 0 | 0 | 0 | 0 (ThT-inactive (N-Fold <2)) | 0 (ThT-inactive (N-Fold <2)) | 0 (ThT-inactive (N-Fold <2)) | 0 (ThT-inactive (N-Fold <2)) | – | 0 (ThT-inactive (N-Fold <2)) | 0 (ThT-inactive (N-Fold <2)) | –
3 | CKYKYQY | 0 | 0 | 0 | 0 | 0 | 0 | 1 (ThT. Cat is 1, if Rel. ThT >2) | 1 (ThT. Cat is 1, if Rel. ThT >2) | 1 (ThT. Cat is 1, if Rel. ThT >2) | 1 (ThT. Cat is 1, if Rel. ThT >2) | 1 (ThT. Cat is 1, if Rel. ThT >2) | 1 (ThT. Cat is 1, if Rel. ThT >2) | – | –
4 | KFKQFFNMWQ | 0 | 0 | 0 | 0 | 0 | 0 | 0 (ThT-inactive (N-Fold <2)) | 0 (ThT-inactive (N-Fold <2)) | 0 (ThT-inactive (N-Fold <2)) | 0 (ThT-inactive (N-Fold <2)) | – | 0 (ThT-inactive (N-Fold <2)) | 0 (ThT-inactive (N-Fold <2)) | –
5 | EIEIEIEI | 1 | 1 | 1 | 1 | 1 | 1 | 0 (ThT-inactive (N-Fold <2)) | 0 (ThT-inactive (N-Fold <2)) | 0 (ThT-inactive (N-Fold <2)) | 0 (ThT-inactive (N-Fold <2)) | 0 (ThT-inactive (N-Fold <2)) | 0 (ThT-inactive (N-Fold <2)) | – | –
6 | NMWQKIKIQI | 1 | – | – | 1 | 1 | 1 | 1 (ThT. Cat is 1, if Rel. ThT >2) | – | – | 1 (ThT. Cat is 1, if Rel. ThT >2) | 1 (ThT. Cat is 1, if Rel. ThT >2) | 1 (ThT. Cat is 1, if Rel. ThT >2) | – | 1
7 | QCKIKQIINM | 1 | – | – | 1 | 1 | 1 | 1 (ThT. Cat is 1, if Rel. ThT >2) | – | – | 1 (ThT. Cat is 1, if Rel. ThT >2) | – | 1 (ThT. Cat is 1, if Rel. ThT >2) | 1 (ThT. Cat is 1, if Rel. ThT >2) | 1
8 | NMWQKVGTPL | 0 | 0 | 0 | 0 | 0 | 0 | 1 (ThT. Cat is 1, if Rel. ThT >2) | 1 (ThT. Cat is 1, if Rel. ThT >2) | 1 (ThT. Cat is 1, if Rel. ThT >2) | 1 (ThT. Cat is 1, if Rel. ThT >2) | – | 1 (ThT. Cat is 1, if Rel. ThT >2) | 1 (ThT. Cat is 1, if Rel. ThT >2) | –
9 | MKFM | 0 | 0 | 0 | 0 | 0 | 0 | 0 (ThT-inactive (N-Fold <2)) | 0 (ThT-inactive (N-Fold <2)) | 0 (ThT-inactive (N-Fold <2)) | 0 (ThT-inactive (N-Fold <2)) | – | 0 (ThT-inactive (N-Fold <2)) | 0 (ThT-inactive (N-Fold <2)) | –
10 | KIKIQIN | 1 | – | – | 1 | 1 | 1 | 0 (ThT-inactive (N-Fold <2)) | – | – | 0 (ThT-inactive (N-Fold <2)) | 0 (ThT-inactive (N-Fold <2)) | 0 (ThT-inactive (N-Fold <2)) | – | 1
11 | NMWQKIKQII | 0 | 0 | 0 | 0 | 0 | 0 | 0 (ThT-inactive (N-Fold <2)) | 0 (ThT-inactive (N-Fold <2)) | 0 (ThT-inactive (N-Fold <2)) | 0 (ThT-inactive (N-Fold <2)) | – | 0 (ThT-inactive (N-Fold <2)) | 0 (ThT-inactive (N-Fold <2)) | –
12 | QCKAKAQA | 0 | 0 | 0 | 0 | 0 | 0 | 0 (ThT-inactive (N-Fold <2)) | 0 (ThT-inactive (N-Fold <2)) | 0 (ThT-inactive (N-Fold <2)) | 0 (ThT-inactive (N-Fold <2)) | – | 0 (ThT-inactive (N-Fold <2)) | 0 (ThT-inactive (N-Fold <2)) | –
13 | KIRGKFEKED | 0 | 0 | 0 | 0 | 0 | 0 | 1 (ThT. Cat is 1, if Rel. ThT >2) | 1 (ThT. Cat is 1, if Rel. ThT >2) | 1 (ThT. Cat is 1, if Rel. ThT >2) | 1 (ThT. Cat is 1, if Rel. ThT >2) | – | 1 (ThT. Cat is 1, if Rel. ThT >2) | 1 (ThT. Cat is 1, if Rel. ThT >2) | –
14 | KVKVKVQV | 0 | 0 | 0 | 0 | 0 | 0 | 1 (ThT. Cat is 1, if Rel. ThT >2) | 1 (ThT. Cat is 1, if Rel. ThT >2) | 1 (ThT. Cat is 1, if Rel. ThT >2) | 1 (ThT. Cat is 1, if Rel. ThT >2) | – | 1 (ThT. Cat is 1, if Rel. ThT >2) | 1 (ThT. Cat is 1, if Rel. ThT >2) | –
15 | KIKIQINMAQ | 1 | – | – | 1 | 1 | 1 | 0 (ThT-inactive (N-Fold <2)) | – | – | 0 (ThT-inactive (N-Fold <2)) | 0 (ThT-inactive (N-Fold <2)) | 0 (ThT-inactive (N-Fold <2)) | – | 1
16 | QCKFKFQF | 1 | – | – | 1 | 1 | 1 | 1 (ThT. Cat is 1, if Rel. ThT >2) | – | – | 1 (ThT. Cat is 1, if Rel. ThT >2) | – | 1 (ThT. Cat is 1, if Rel. ThT >2) | 1 (ThT. Cat is 1, if Rel. ThT >2) | 1
17 | CKIKIQIII | 1 | – | – | 1 | 1 | 1 | 1 (ThT. Cat is 1, if Rel. ThT >2) | – | – | 1 (ThT. Cat is 1, if Rel. ThT >2) | – | 1 (ThT. Cat is 1, if Rel. ThT >2) | 1 (ThT. Cat is 1, if Rel. ThT >2) | 1
18 | KIKIQINMW | 1 | – | – | 1 | 1 | 1 | 1 (ThT. Cat is 1, if Rel. ThT >2) | – | – | 1 (ThT. Cat is 1, if Rel. ThT >2) | 1 (ThT. Cat is 1, if Rel. ThT >2) | 1 (ThT. Cat is 1, if Rel. ThT >2) | – | 1
19 | EFEFQF | 0 | 0 | 0 | 0 | 0 | 0 | 1 (ThT. Cat is 1, if Rel. ThT >2) | 1 (ThT. Cat is 1, if Rel. ThT >2) | 1 (ThT. Cat is 1, if Rel. ThT >2) | 1 (ThT. Cat is 1, if Rel. ThT >2) | 1 (ThT. Cat is 1, if Rel. ThT >2) | 1 (ThT. Cat is 1, if Rel. ThT >2) | – | –
20 | KVKGVGK | 0 | 0 | 0 | 0 | 0 | 0 | 0 (ThT-inactive (N-Fold <2)) | 0 (ThT-inactive (N-Fold <2)) | 0 (ThT-inactive (N-Fold <2)) | 0 (ThT-inactive (N-Fold <2)) | – | 0 (ThT-inactive (N-Fold <2)) | 0 (ThT-inactive (N-Fold <2)) | –
